{"source": "patent US20080287425A1", "about": "“Method for Controlling Chinch Bugs” (FMC CORPORATION, priority 2005, published 2008)", "system": "adult southern chinch bugs", "test": "LC-50 of bifenthrin on chinch bug populations, dipped St. Augustine grass stolons in Petri dishes", "format": "in vivo, Blissus insularis", "details": "about 24 hours at about 28° C", "description": "Developing Chinch Bug Resistance to Bifenthrin (Synthetic Pyrethroid) Serial dilutions of bifenthrin were made from Talstar Flowable 7.9% AI (FMC, Philadelphia, Pa.). Freshly harvested St. Augustine grass stolons (about 10 cm long) were dipped into the dilutions and allowed to air dry. The stolons were placed individually into Petri dishes (15 cm diameter) containing moist filter paper to maintain high humidity. Twenty adult southern chinch bugs were placed into each Petri dish and held for about 24 hours at about 28° C. Sample sizes of adults tested ranged from 200 (20 each at 10 dose levels) to 480 (20 each at 24 dose levels) for each location to estimate LC-50 for that location. Different numbers of adults tested per location depended on availability of adults plus variability noted in testing. Since the objective of this study was to estimate LC-50 values, doses expected to give 25 to 75% mortality for best LC-50 were used. Mortality was defined as virtually no movement by an adult during a 5 minute observation period through a 5× large magnifying lens. The no movement criterion was used to avoid ambiguities of comatose, unable to stand, moribund, etc.", "data": [{"smiles": "Cc1c(COC(=O)[C@@H]2[C@H](/C=C(\\Cl)C(F)(F)F)C2(C)C)cccc1-c1ccccc1", "note": "(racemic) [bifenthrin]", "values": [{"measurement": "LC-50", "setting": "chinch bugs from Belle Glade, control problem in the field: No", "value": 2.6, "unit": "ppm"}, {"measurement": "LC-50", "setting": "chinch bugs from Clermont, control problem in the field: Yes", "value": 78.7, "unit": "ppm"}, {"measurement": "LC-50", "setting": "chinch bugs from Daytona Beach, control problem in the field: Yes", "value": 243.3, "unit": "ppm"}, {"measurement": "LC-50", "setting": "chinch bugs from Fort Pierce, control problem in the field: No", "value": 2.8, "unit": "ppm"}, {"measurement": "LC-50", "setting": "chinch bugs from Gainesville, control problem in the field: No", "value": 10.6, "unit": "ppm"}, {"measurement": "LC-50", "setting": "chinch bugs from Kendall Lakes, control problem in the field: No", "value": 9.3, "unit": "ppm"}, {"measurement": "LC-50", "setting": "chinch bugs from Key Largo, control problem in the field: Yes", "value": 148.2, "unit": "ppm"}, {"measurement": "LC-50", "setting": "chinch bugs from Lithia, control problem in the field: No", "value": 5.4, "unit": "ppm"}, {"measurement": "LC-50", "setting": "chinch bugs from Orlando, control problem in the field: No", "value": 2.3, "unit": "ppm"}, {"measurement": "LC-50", "setting": "chinch bugs from Ormond Beach, control problem in the field: Yes", "value": 698.8, "unit": "ppm"}, {"measurement": "LC-50", "setting": "chinch bugs from Palm Coast, control problem in the field: Yes", "value": "1,693 ppm"}, {"measurement": "LC-50", "setting": "chinch bugs from Palmetto, control problem in the field: Yes", "value": 493.6, "unit": "ppm"}, {"measurement": "LC-50", "setting": "chinch bugs from Royal Palm Beach, control problem in the field: No", "value": 7.3, "unit": "ppm"}, {"measurement": "LC-50", "setting": "chinch bugs from Sarasota, control problem in the field: Yes", "value": 89.2, "unit": "ppm"}, {"measurement": "LC-50", "setting": "chinch bugs from Spring Hill, control problem in the field: Yes", "value": 159.3, "unit": "ppm"}, {"measurement": "LC-50", "setting": "chinch bugs from Tamarac, control problem in the field: No", "value": 9.7, "unit": "ppm"}]}]}
